# Results taken from patent US10357537B2, “Cyclotides as immunosuppressive agents” (priority 2011, dated 2019).
# Bridge positions count the residues as written; N and C are the ends. Peptide text beside a SMILES is read from it.
# How the values were obtained:
# [1] = test system: spleenocytes restimulated with MOG35-55; test: Cytokine release of spleenocytes from treated EAE mice, ELISA; type: cell-based, mouse
# Description: FIG. 21. Effect on cytokine release of ex vivo isolated PBMC at day 3. Spleenocytes of sacrificed mice were isolated and restimulated with MOG35-55 (30 μg/mL) for three days or left untreated. Supernatants of these cells were used for analyzing cytokine release in ELISAs. In (A) interleukin 2 release was highest in splenic T-cells isolated from naïve mouse group that were restimulated with MOG, correlating with disease course. […] There was hardly any cytokine IL4 detectable (E), opposing a TH2 immune response, which was expected.
# Spleens of sacrificed mice were taken and transferred into a 6 cm Petri Dish with 5 mL sterile PBS. To receive a spleenocyte suspension, spleens were meshed and filtered through 70 μm nylon sieve. Cells were centrifuged at 1200 rpm for 5 minutes and resuspended in RPMI 1640 media supplemented with 10% fetal calf serum (FCS), 2 mM L-glutamine, penicillin (100 U/mL), and streptomycin (100 μg/mL). Spleenocytes were cultivated at a concentration of 3×10^6/mL in a 48-well flat-bottom plate (500 μL/well). Cells were stimulated with 30 μg/mL MOG35-55 or left untreated and incubated at 37° C. for three days. Supernatants and cells were taken stored at −20° C. until further experiments. […] After 12 hours MOG or T20K was added to appropriate wells. Supernatants were stored after 24 hours and after 48 hours at −20° C.
# Supernatants of stimulated spleenocytes were analyzed for their IL2, IL17, INFγ, IL4 and IL22 cytokine release using anti-mouse antibodies for ELISA from eBioscience according to the manufacturer's instructions. The color reaction was evaluated at an optical density of 450 nm by the microplate reader Synergy H4 (BioTek).
# [2] = test system: NFATc1 in splenic T-cells of naive mouse group; test: Western blot for NFATc1; type: cell-based; conditions: compared to V10K and MOG
# Description: (§1) FIG. 23. Effect of cyclotides on protein expression of NFAT1c. […] But instead of stimulating with PHA-L and PMA/ionomycin, one part of the cells was stimulated with PHA-L (10 μg/mL) and the other with PMA (50 ng/mL)/ionomycin (500 ng/mL) over night. […] Splenic T-cells isolated from naïve mouse group were stimulated as described above.
# (§2) Human T-cells provided by CCRI from A. Dohnal, PhD were stimulated according to the protocol for IL2 release described above. Stimulated cells were resuspended in TBS and mixed at equal parts with sample buffer and heated for five minutes at 95° C. A sodium dodecyl sulfate polyacrylamide gel was prepared to separate the proteins achieved from the lysed T-cells. After electrophoresis proteins were transferred from the gel to a membrane. After blocking the membrane with BSA 3% in TBST over night at 4° C., the first antibody mouse anti-NFATc1 was incubated for 2 hours at room temperature. After five times washing with TBST 0.1% Tween, the membrane was incubated with the second antibody anit-mouse IgG HRP for one hour at room temperature. The membrane was dried and treated with West Pico or West Femto Super Signal Solution according to the manufactures protocol to evaluate the chemo-luminescence signal.
# NFATc1 in human T-cells = test: Western blot for NFATc1; type: cell-based; conditions: CsA 5 μg/mL, T20K 4 μM; compared to V10K, PHA-L, PMA/Ionomycin
# Description: as §1, §2
smiles,measurement,setting,value
"CC(C)C[C@@H]1NC(=O)CNC(=O)[C@H](CC(N)=O)NC(=O)[C@H](CCCNC(=N)N)NC(=O)[C@H]([C@@H](C)O)NC(=O)[C@@H]2CSSC[C@@H]3NC(=O)[C@H]([C@@H](C)O)NC(=O)CNC(=O)CNC(=O)[C@H](C(C)C)NC(=O)[C@@H]4CSSC[C@H](NC(=O)[C@H](CCCCN)NC(=O)[C@H](CSSC[C@H](NC(=O)[C@H](C(C)C)NC(=O)[C@@H]5CCCN5C1=O)C(=O)NCC(=O)N[C@@H](CCC(=O)O)C(=O)N[C@@H]([C@@H](C)O)C(=O)N4)NC(=O)CNC(=O)[C@@H]1CCCN1C(=O)[C@H]([C@@H](C)O)NC(=O)[C@H](CC(N)=O)NC3=O)C(=O)N[C@@H](CO)C(=O)N[C@@H](Cc1c[nH]c3ccccc13)C(=O)N1CCC[C@H]1C(=O)N[C@@H](C(C)C)C(=O)N2 [Kalata T20K] (cyclo(CGETCVGGTCNTPGCKCSWPVCTRNGLPV); disulfide 1-15, 5-17, 10-22 (inferred); ring closure inferred)",IL2 release of spleenocytes from mice treated at day 7,"[1]; T20K (7), after MOG stimulation, vs naive group",IL2 release was lower than in naïve group
same,"IL17, IL22 and INFγ release of spleenocytes from pre-treated mice","[1]; T20K (-7, 0)","inhibitory effect could also be demonstrated towards the cytokines IL17, IL22 and INFγ in T-cells of T20K (−7, 0) treated mice, although not significantly"
same,IL2 production of spleenocytes from pre-treated mice,"[1]; T20K day -7 or 0, MOG35-55 30 μg/mL, three days",significant inhibition of the IL2 production
same,NFATc1 signal in mouse splenic T-cells,[2],reduced NFATc1 signal
same,NFATc1 signal in human T-cells,NFATc1 in human T-cells,reduced signal of NFATc1
